From patent US20130039956A1, “USE OF NITROCARBOXYLIC ACIDS FOR THE TREATMENT, DIAGNOSIS AND PROPHYLAXIS OF AGGRESSIVE HEALING PATTERNS” (priority 2010, published 2013)

What was measured:
adult rats = assay: Fibrogenesis after traumatic and thermal tissue damage in dermal wound healing in vivo; parameters: species or system rat; conditions: 100 micromol ethanolic solution on wound margins, 8 weeks, compared with native FA
Excerpt: In order to determine the effects of nitrated fatty acids on fibrogenesis in response to traumatic and thermal tissue damage, an in vivo rat model was investigated. Paravertebral scalpel incision (two on each side) of approximately 1 cm in length and a depth of 1 mm were made in 12 anesthetized adult rats (150-200 g) of either sex after disinfection. Bleeding was stopped by manual compression. The entire length of the wound margins of one incision at each side were additionally cauterized using a 3-mm ball electrode connected to a DRE ASG-120 electrosurgical generator. Wound margins of one side were then covered with a sterile ethanolic 0.9% saline solution, or with a sterile ethanolic solution of the fatty acids (100 micromol), or with a sterile ethanolic solution of the nitrated fatty acids (100 micromol) using a sterile brush. A 1×10 mm cotton string that was bathed in the ethanolic solution containing 0.9% saline, native fatty acid or nitrated fatty acids was placed upon the incision site that had been closed by manual adaptation. The adaptation result and the cotton strings were fixed by an adhesive film. The animals were housed and fed according to institutional standards. The wound films were carefully removed after 2 weeks. Animals were euthanized after 8 weeks. The skin wounds were harvested, including the epidermis, dermis, and subcutaneous loose tissue with the surrounding normal tissue. The removed tissues were fixed in formalin and then embedded in paraffin. The cutting plane was vertical to the longitudinal axis of the former incisions. Slices (4-6 μm) were stained with H&E and Masson trichrome staining to evaluate the amount and density of collagen.

[1] = tested on: Tracheas of adult Wistar rats; assay: Tissue damage due to barotrauma ex vivo (tracheal rings); assay type: cell-based; conditions: tracheal rings bathed 15 minutes, balloon 4 atm 4 hours; compared with native FA
Description: In order to determine the effects of nitrated fatty acids on mechanical trauma to tracheal cells, an ex vivo model was established. Tracheas of adult Wistar rats sacrificed with thiopental given intraabdominally were carefully resected (harvested). Whole (intact) tracheas were cultured in DMEM 10 (Sigma) supplemented with antibiotic/antimycotic drugs for 48 hours at 37° C. Tracheas were cut into five pieces of equal size. One piece was immediately analyzed, two were bathed in 0.9% saline, one was bathed in a solution containing native fatty acid in SDS (1%), and one was bathed in a solution containing nitro fatty acid, respectively, for 15 minutes each. The inner diameters of the tracheal rings were measured. A non-compliant balloon catheter for use in vascular interventions was chosen, so that the nominal balloon diameter was 15-20% larger than that of the trachea. One tracheal ring pretreated with 0.9% saline was left untreated; the other prepared tracheal rings were mounted on the balloon catheter, which was inflated to a pressure of 4 atm thereafter. Balloons were kept inflated for 4 hours, while being positioned in the culture medium. Thereafter, the tracheal rings were further cultivated in separate vials for 24 hours. In a separate set of investigations, sense/antisense ODNs for HO-1 (Invitrogen) directed against the translation initiation codon in the HO-1 cDNA was used to inhibit hemoxydase-1 synthesis. The cells were transfected using the Superfect transfection reagent (Qiagen) before traumatization. In another set of experiments, the HO inhibitor SnPP IX (Porphyrin Products, London, UK) was added to the culture medium 6 hours before traumatization at a dose of 10 micromol.
For analysis, the rings were cut into small strips using a no touch technique. Viability was tested using a MTT assay and apoptosis using a TUNEL assay. Anti-HO-1 antibodies (StressGen, Tebu, Le-Perray-en-Yvelines, France) were measured by Western blot and immunohistochemistry.

TRPV-1 = biological target: T1, TRPV-1 (Mus musculus, UniProt Q704Y3); assay: Signal transduction of receptors of the TRP-protein family in retinal slices; assay type: cell-based, mice; conditions: 10 and 50 μmol, capsaicin 10 μmol or acid pH; compared with native FA
T1 construct: Whole retinas were isolated and cut into 100 μm slices using a tissue slicer; from tissue; host or cells: mouse retinal slices (100 μm)
Description: In order to determine the effect of nitrated fatty acids on receptor signal transduction, an in vitro model was used. Retinal slices from cadaver mice were prepared as described by Snellman and Nawy (Snellman J. Nawy S (2004). cGMP-dependent kinase regulates response sensitivity of the mouse on bipolar cell. J Neurosci 24:6621-6628). Whole retinas were isolated and cut into 100 μm slices using a tissue slicer and than transferred to the recording chamber. The chamber was continuously perfused with Ames media and oxygenated. Picrotoxin (100 μM), strychnine (10 μM), and TPMPA (50 μM) were added. Each nitro fatty acid was added in two experiments to achieve a final concentration of 10 μmol, and in another two experiments to achieve a final concentration of 50 μmol. In two experiments, the corresponding native fatty acid was added to achieve a final concentration of 10 and 50 μmol, and in two experiments saline solution was added which served as controls. Currents were measured via tissue electrodes and monitored throughout the investigation. After incubating the solution for 2 hours, the TRPV-1 agonist capsaicin was added to achieve a final concentration of 10 μmol. Experiments were performed using either 10 mmol Hepes or 10 mmol Mes adjusting the pH of the solution to 6.4 or 4.4, respectively. Furthermore, experiments were performed without or with preincubation (5 minutes) of the TRPV-1 antagonist capsazepine. The solution temperature was held constant at 35° C.
Further: key: 0: not superior to native FA (control); +: Superior to native FA; ++: superior to both; +++: outstanding effect.

T1 sequence (Q704Y3 whole entry): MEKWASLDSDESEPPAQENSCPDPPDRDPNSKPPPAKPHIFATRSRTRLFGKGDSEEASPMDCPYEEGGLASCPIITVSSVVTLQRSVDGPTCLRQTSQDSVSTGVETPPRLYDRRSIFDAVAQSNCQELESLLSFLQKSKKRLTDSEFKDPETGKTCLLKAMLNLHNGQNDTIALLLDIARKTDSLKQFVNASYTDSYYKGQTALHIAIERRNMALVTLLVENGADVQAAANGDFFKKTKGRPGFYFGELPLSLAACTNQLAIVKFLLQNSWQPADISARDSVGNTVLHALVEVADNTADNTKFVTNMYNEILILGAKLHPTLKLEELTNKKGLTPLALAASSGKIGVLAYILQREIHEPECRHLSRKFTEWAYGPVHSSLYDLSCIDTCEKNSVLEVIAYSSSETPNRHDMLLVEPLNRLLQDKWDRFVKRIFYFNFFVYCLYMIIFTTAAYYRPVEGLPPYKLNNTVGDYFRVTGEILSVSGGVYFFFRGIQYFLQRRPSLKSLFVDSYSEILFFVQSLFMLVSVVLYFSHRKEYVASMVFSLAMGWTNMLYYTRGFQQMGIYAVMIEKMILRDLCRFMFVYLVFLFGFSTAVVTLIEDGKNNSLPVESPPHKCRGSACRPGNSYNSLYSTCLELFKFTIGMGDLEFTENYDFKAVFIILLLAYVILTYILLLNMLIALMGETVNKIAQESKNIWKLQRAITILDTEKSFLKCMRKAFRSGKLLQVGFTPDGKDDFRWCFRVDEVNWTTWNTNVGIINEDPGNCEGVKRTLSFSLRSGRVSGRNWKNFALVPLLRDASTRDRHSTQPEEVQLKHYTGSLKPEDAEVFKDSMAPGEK

| Compound | Relative effect on fibrogenesis (scar formation) in dermal wound healing (adult rats) | Relative effect on tissue damage due to barotrauma [1] | Relative effect on TRPV-1 signal transduction (current response) (TRPV-1) |
| --- | --- | --- | --- |
| 5-nitro-eicosatrienoic acid [compound 4] | + |  |  |
| 9,10-nitro-cis-oleic acid [compound 10] | ++ | ++ | ++ |
| 9,10-nitro-trans-oleic acid [compound 15] | + | + |  |
| CCCCCCCC/C=C(/CCCCCCCC(=O)O)[N+](=O)[O-] [compound 1, 9-nitro cis-oleic acid] | ++ | ++ | ++ |
| CCCCC/C=C\C/C(=C\CCCCCCCC(=O)O)[N+](=O)[O-] [compound 2, 10-nitro-cis-linoleic acid] | +++ | + | ++ |
| CCCCCCCC/C(=C/CCCCCCCC(=O)O)[N+](=O)[O-] [compound 3, 10-nitro-cis-oleic acid] | ++ | + | ++ |
| CCCCC/C=C(/C/C=C\C/C=C\C/C=C\C/C=C\CCC(=O)O)[N+](=O)[O-] [compound 5, 16-nitro-all-cis-4,7,10,13,16-docosapentaenoic acid] | 0 |  |  |
| CC/C=C\C/C=C\C/C=C(/CCCCCCCC(=O)O)[N+](=O)[O-] [compound 6, 9-nitro-all-cis-9-12,15-octadecatrienoic acid] | ++ | + | + |
| CC/C=C\C/C=C\C/C(=C/C/C=C\C/C=C\CCCCCC(=O)O)[N+](=O)[O-] [compound 7, 14-nitro-all-cis-7,10,13,16,19-docosapentaenoic acid] | 0 |  |  |
| CCCCCCCC/C=C(/CCCCCCCCCCCCCC(=O)O)[N+](=O)[O-] [compound 8, 15-nitro-cis-15-tetracosenoic acid] | + | + |  |
| CCCCCCCC/C=C(\CCCCCCCC(=O)O)[N+](=O)[O-] [compound 9, 9-nitro-trans-oleic acid] | + |  |  |
| CCCCC=C(C=CC=CCCCCCCCC(=O)O)[N+](=O)[O-] [compound 11, 13-nitro-octadeca-9,11,13-trienoic acid] | + | + |  |
| CCCCCCCC/C(=C\CCCCCCCC(=O)O)[N+](=O)[O-] [compound 12, 10-nitro-trans-oleic acid] | 0 |  |  |
| CCCCCC/C=C(/CCCCCCCC(=O)O)[N+](=O)[O-] [compound 13] | + |  |  |
| CCCCCC=CCC=C(CC=CCC=CCCCC(=O)O)[N+](=O)[O-] [compound 14, 11-nitro-5,8,11,14-eicosatrienoic acid] | + | + |  |
| CCCCCC/C=C(\CCCCCCCC(=O)O)[N+](=O)[O-] [compound 16, 9-nitro-9-trans-hexadecenoic acid] | + |  |  |
| CCCCCCCC/C=C(/CCCCCCCCCCCC(=O)O)[N+](=O)[O-] [compound 17, 13-nitro-cis-13-docosenoic acid] | + |  |  |
| CCCCC/C=C(/C/C=C\C/C=C(/C/C=C\CCCC(=O)O)[N+](=O)[O-])[N+](=O)[O-] [compound 18, 8,14-nitro-cis-5,8,11,14-eicosatetraenoic acid] | + |  |  |
| CCC=CCC=C(CC=CCC=CCC=CCC=C(CCC(=O)O)[N+](=O)[O-])[N+](=O)[O-] [compound 19, 4,16-nitro-docosahexaenoic acid] | + |  |  |
| CCCCCCCCCCC/C=C(/CCCCC(=O)O)[N+](=O)[O-] [compound 21, 6-nitro-cis-6-octadecenoic acid] | ++ |  |  |
| CCCCCC=CCC=C(CC=CC/C=C\CCCC(=O)O)[N+](=O)[O-] [compound 22, 11-nitro-cis-5,8,11,14-eicosatetraenoic acid] | ++ | + | + |
